What was measured:
NaCl (2) 25% = test: Cytoprotective activity in the rat, NaCl 25%; type: in vivo; settings: read-out: Cytoprotective activity DE50, NaCl (2) 25%
Method: (§1) iv) Cytoprotective activity in the rat
(§2) The tests were carried out according to what has been described in literature: • 1 (A.Robert et al. Gastroenterology, 77, 433 (1979)) (Table 4) • 2 (Szabo et al. Sciene 214 (200) (1981)) (Table 4)

Ethanol (1) +NEM = test: Cytoprotective activity in the rat, Ethanol + NEM; type: in vivo; settings: read-out: Cytoprotective activity DE50, Ethanol (1) +NEM
Method: as §1, §2

NaOH (2) 0.2 N = test: Cytoprotective activity in the rat, NaOH 0.2 N; type: in vivo; settings: read-out: Cytoprotective activity DE50, NaOH (2) 0.2 N
Method: as §1, §2

Oral LD50 in the rat = settings: in vivo
[1] = test system: Acetyl salicyl-ic acid + HCl; test: Cytoprotective activity in the rat, acetylsalicylic acid + HCl; type: in vivo; settings: read-out: Cytoprotective activity DE50, Acetyl salicyl-ic acid + HCl
Method: as §1, §2

Compound | ED50 (NaCl (2) 25%) [mg/kg] | ED50 (Ethanol (1) +NEM) [mg/kg] | ED50 (NaOH (2) 0.2 N) [mg/kg] | LD50 (Oral LD50 in the rat) [mg/kg] | ED50 [1] [mg/kg]
CCCCCCC1CCCC(N)C1CCCCCCC(=O)O (centres unmarked) [IBI-P-05006, 3-hexyl-2-(6-carboxy-hexyl)-cyclohexyl-amine] | 25 | 20 | 9 | 3000 | > 200
CCCCCCC1CCC2(NC(=O)NC2=O)C1CCCCCCC(=O)O (centres unmarked) [IBI-P-01028, 5-spiro-[2-(6-carboxy-ethyl)-3-hexyl-cyclopentyl]-imidazoline-2,4-dione] | 15 | 30 | 18 | 2000 | 78
CCCCCC1C(N)CCC1CCCCCCCCO (centres unmarked) [IBI-P-10007, 2-pentyl-3-(8-hydroxy-octyl)-cyclopentyl amine] | 4 | 8 | 4 | 3000 | 165
CCCCCCC1CCC(N)C1CCCCCCC(OCC)OCC (centres unmarked) [IBI-P-01053, 3-hexyl-2-(6-diethoxymethyl-hexyl)-cyclopentyl amine] | 17 | 7 | 6 | 3000 | 252

Source: patent EP0319576B1, “PROSTAGLANDIN DERIVATIVES, PROCESSES FOR PREPARING THEM AND PHARMACEUTICAL COMPOSITIONS CONTAINING SAID DERIVATIVES” (IBI- Istituto Biochimico Italiano Giovanni Lorenzini S.p.A., priority 1987, dated 1988)
